From US20260151399A1, “COMBINATIONS OF LSD1 INHIBITORS AND MENIN INHIBITORS FOR TREATING CANCER” (ORYZON GENOMICS, S.A., priority 2022, published 2026)

Experiments:
Assay in all cases: Single agent viability assay (96 hours, alamarBlue)
Type in all cases: cell-based
[1] = tested on: MOLM-13; conditions: for EC50: Homo sapiens, MOLM-13, mean, 96 hours incubation, N=2; for EC50 (range in words) / reduction of viability (compared to vehicle controls): MOLM-13, 96 hours
Protocol: (§1) Mycoplasma-free AML cell lines were maintained in RPMI 10% FBS medium at 37° C. in a humidified incubator with controlled 5% CO2 atmosphere. Cell freezing and thawing was performed following recommendation from ATCC. Genetic profiling of the cell lines used is available in Table 1.
(§2) Cells were seeded in 96-well plates at the optimal density to guarantee linear growth throughout the assay (8000 cells/well for MV(4;11), 4000 cells/well for MOLM-13 and OCI-AML3) in 50 μL of medium. Each experimental condition was tested in technical triplicates, including medium-only and vehicle-treated controls for background correction and normalization, respectively. After seeding, 50 μL of medium containing 9 serial dilutions of 2×-concentrated compound were added to the cells to obtain 100 μL of cells with 1×-concentrated compound at each dilution (DMSO %<0.5%). Cells were then incubated for 96 hours at 37° C. in a controlled 5% CO2 atmosphere, prior to evaluation of cell viability using alamarBlue™ cell viability reagent (ThermoFisher Scientific, Waltham, MA/USA). AlamarBlue™ is a cell viability indicator that uses the natural reducing power of living cells to convert resazurin to the fluorescent molecule resorufin. Briefly, alamarBlue™ stock solution was diluted 1:20 in the culture medium and after 3 hours incubation fluorescence was measured using a TECAN Infinity 2000 plate reader (Tecan Group Ltd., Mannedorf, CH; 540-570 nm excitation wavelength, 580-610 nm emission wavelength). For each condition, the average fluorescence was calculated from the 3 technical replicates; background correction was calculated from the fluorescence of medium-only controls. Data were analyzed using the GraphPad PRISM® version 9.0.1 (GraphPad Software, Inc., La Jolla, CA/USA) to calculate the best-fitting curves and the EC50 values.

[2] = tested on: MV(4;11); conditions: for EC50: Homo sapiens, MV4-11, mean, 96 hours incubation, N=2; for EC50 (range in words) / reduction of viability (compared to vehicle controls): MV(4;11), 96 hours
Protocol: as §1, §2

[3] = tested on: OCI-AML3; conditions: for EC50: Homo sapiens, OCI-AML-3, mean, 96 hours incubation, N=2
Protocol: as §1, §2

Row | EC50 [1] [nM] | EC50 (range in words) [1] | EC50 [3] [nM] | EC50 (range in words) ([3]; OCI-AML3, 96 hours) | SMILES | reduction of viability (compared to vehicle controls) [1] | EC50 [2] [nM] | EC50 (range in words) [2] | reduction of viability (compared to vehicle controls) [2] [%] | reduction of viability (compared to vehicle controls) ([3]; OCI-AML3, 96 hours)
1 | 1840 | less potent than SNDX-5613 | – | – | N#Cc1cc2cc(CN3CCC(Nc4ncnc5sc(CC(F)(F)F)cc45)CC3)ccc2[nH]1 [MI-136, 5-[[4-[[6-(2,2,2-trifluoroethyl)thieno[2,3-d]pyrimidin-4-yl]amino]piperidin-1-yl]methyl]-1H-indole-2-carbonitrile] | 100% | 593 | less potent than SNDX-5613 | 100 | –
2 | 714 | less potent than SNDX-5613 | – | – | CC(C)(C)OC(=O)N[C@@H]1CCCN(Cc2ccnc(C(=O)Nc3ccc(-c4cc5c(N6CCOCC6)ncnc5[nH]4)cc3)c2)C1 [Menin-MLL inhibitor 20, tert-butyl N-[(3R)-1-[[2-[[4-(4-morpholin-4-yl-7H-pyrrolo[2,3-d]pyrimidin-6-yl)phenyl]carbamoyl]pyridin-4-yl]methyl]piperidin-3-yl]carbamate] | 100% | 750 | less potent than SNDX-5613 | 100 | –
3 | 3.55 | – | 1.4 | – | CN1CCN(C(=O)[C@H](CCCN[C@@H]2C[C@H]2c2ccc(F)cc2)NC(=O)c2ccc(-n3ccnn3)cc2)CC1 [bomedemstat, N-[(2S)-5-{[(1R,2S)-2-(4-fluorophenyl)cyclopropyl]amino}-1-(4-methylpiperazin-1-yl)-1-oxopentan-2-yl]-4-(1H-1,2,3-triazol-1-yl)benzamide] | – | 2.9 | – | – | –
4 | 0.2 | – | 0.13 | – | N[C@H]1CC[C@H](N[C@@H]2C[C@H]2c2ccccc2)CC1 [iadademstat, (trans)-N1-((1R,2S)-2-phenylcyclopropyl)cyclohexane-1,4-diamine] | – | 0.16 | – | – | –
5 | 1.15 | – | 0.99 | – | COc1ccc(-c2c(-c3ccc(C#N)c(F)c3)nc(N3CCC(N)CC3)n(C)c2=O)cc1F [pulrodemstat, 4-[2-(4-aminopiperidin-1-yl)-5-(3-fluoro-4-methoxyphenyl)-1-methyl-6-oxo-1,6-dihydropyrimidin-4-yl]-2-fluorobenzonitrile] | – | 1.1 | – | – | –
6 | 32 | nanomolar range | 53.2 | nanomolar range | CCN(C(=O)c1cc(F)ccc1Oc1cncnc1N1CC2(CCN(C[C@H]3CC[C@H](NS(=O)(=O)CC)CC3)CC2)C1)C(C)C [revumenib, 2-{[4-(7-{[trans-4-(ethanesulfonamido)cyclohexyl]methyl}-2,7-diazaspiro[3.5]nonan-2-yl)pyrimidin-5-yl]oxy}-N-ethyl-5-fluoro-N-(propan-2-yl)benzamide] | around 70% | 9.58 | nanomolar range | ~100 | around 50%
